# Assay results reported in US11591326B2, “Inhibitors of protein arginine methyltransferase 5 (PRMT5), pharmaceutical products thereof, and methods thereof” (PHARMABLOCK SCIENCES (NANJING), INC., priority 2018, dated 2023).
# Molecular target: Human recombinant PRMT5 in complex with human recombinant MEP50 (Homo sapiens (Human), UniProt O14744)
# Assay: PRMT5/MEP50 AlphaLISA enzyme inhibitory assay
# Assay type: biochemical
# Conditions: PRMT5/MEP50 25 nM, SAM 10 μM, Biotin-H4 peptide 30 nM
# Source text: Human recombinant PRMT5 in complex with human recombinant MEP50, co-expressed in an insect cell/baculovirus expression system was purchased from Reaction Biology (Malvern, Pa.). […] Anti-H4R3-Me AlphaLISA acceptor beads and Streptavidin labeled AlphaLISA donor beads were obtained from PerkinElmer (Waltham, Mass.). S-adenosylmethionine (SAM), Tween20, dimethylsulfoxide (DMSO), and Tris buffer were obtained from Sigma at the highest level of purity available.
# General Procedure for PRMT5/MEP50 AlphaLISA Enzyme Inhibitory Assays: Assays were performed in the buffer consisting of 50 mM Tris, pH 8.5, 5 mM MgCl2, 50 mM NaCl with 0.01% Tween20 and 1 mM DTT added right before the assay. 2.5 μL of compound solution in the assay buffer with 4% DMSO and 5 μL of PRMT5/MRP50 complex/SAM mixture solution in the assay buffer which was pre-incubated for 30 minutes were added into a white low volume 384 well microtiter plate. This mixture solution was incubated for 15 minutes with gentle shaking at room temperature. Methyl transfer reaction was initiated by adding 2.5 μL of Biotin-H4 (1-21) peptide substrate solution in the assay buffer. Final concentrations of PRMT5/MEP50, SAM, Biotin-H4 peptide substrate, and DMSO were 25 nM, 10 μM, 30 nM, and 1%, respectively. The reaction was allowed to perform for 120 minutes in dark with gentle shaking at room temperature after which 5 μL of Anti-H4R3-Me AlphaLISA acceptor beads in detection buffer from the manufacturer was added into the reaction mixture followed by incubation for 60 minutes. 10 μL of Streptavidin labeled AlphaLISA donor beads in detection buffer was added into the mixture followed by 30 minute incubation. Final acceptor and donor beads concentrations were 10 μg/mL. Plates were read on an Envision multimode plate reader from PerkinElmer (Waltham Mass., USA) with an excitation wavelength of 680 nm and emission wavelength of 615 nm. IC50 values of inhibitors were obtained by fitting the fluorescence intensity vs inhibitor concentrations in a sigmoidal dose-response curve (variable slopes, four parameters) using Prism 7 (La Jolla, Calif.).
# Sequence of Human recombinant PRMT5 in complex with human recombinant MEP50 (O14744 whole entry): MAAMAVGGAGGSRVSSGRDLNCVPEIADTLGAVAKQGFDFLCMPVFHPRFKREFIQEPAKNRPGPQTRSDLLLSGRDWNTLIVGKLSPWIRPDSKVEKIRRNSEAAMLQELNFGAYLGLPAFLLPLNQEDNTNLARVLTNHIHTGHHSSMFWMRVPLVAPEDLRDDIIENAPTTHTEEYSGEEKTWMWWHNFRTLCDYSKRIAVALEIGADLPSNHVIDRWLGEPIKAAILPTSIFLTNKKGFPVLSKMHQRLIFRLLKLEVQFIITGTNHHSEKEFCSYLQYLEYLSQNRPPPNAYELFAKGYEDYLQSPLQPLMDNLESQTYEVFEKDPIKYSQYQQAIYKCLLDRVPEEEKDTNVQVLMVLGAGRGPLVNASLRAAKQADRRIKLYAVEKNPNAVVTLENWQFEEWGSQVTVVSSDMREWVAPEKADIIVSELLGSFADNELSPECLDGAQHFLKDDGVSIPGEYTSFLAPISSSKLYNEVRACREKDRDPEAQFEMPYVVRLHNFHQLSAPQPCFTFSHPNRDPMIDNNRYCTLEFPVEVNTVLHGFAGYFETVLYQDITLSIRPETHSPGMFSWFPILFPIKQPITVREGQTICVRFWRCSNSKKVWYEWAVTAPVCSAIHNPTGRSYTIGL
# Sequence of Human recombinant PRMT5 in complex with human recombinant MEP50 (Q9BQA1 whole entry partner): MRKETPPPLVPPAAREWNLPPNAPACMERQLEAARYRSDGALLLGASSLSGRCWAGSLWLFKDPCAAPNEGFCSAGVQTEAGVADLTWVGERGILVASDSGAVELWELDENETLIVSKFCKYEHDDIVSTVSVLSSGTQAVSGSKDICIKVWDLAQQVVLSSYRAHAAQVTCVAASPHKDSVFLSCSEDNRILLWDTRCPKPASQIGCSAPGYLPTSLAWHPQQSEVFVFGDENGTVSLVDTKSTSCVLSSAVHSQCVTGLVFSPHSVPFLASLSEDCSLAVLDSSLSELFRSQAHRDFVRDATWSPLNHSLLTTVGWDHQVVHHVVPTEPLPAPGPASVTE
row,SMILES,IC50
1,"Cn1cc(Nc2cc3c(cc2Cl)CCN(CC(O)CN2CCc4ccccc4C2)C3=O)cn1 (stereo not drawn) [Compound 26, 6-chloro-2-(3-(3,4-dihydroisoquinolin-2(1H)-yl)-2-hydroxypropyl)-7-((1-methyl-1H-pyrazol-4-yl)amino)-3,4-dihydroisoquinolin-1(2H)-one]",487 nM
2,"Cn1ccc(Nc2ccc3c(c2)C(=O)N(CC(O)CN2CCc4ccccc4C2)CC3)cc1=O (stereo not drawn) [Compound 27, 2-(3-(3,4-dihydroisoquinolin-2(1H)-yl)-2-hydroxypropyl)-7-((1-methyl-2-oxo-1,2-dihydropyridin-4-yl)amino)-3,4-dihydroisoquinolin-1(2H)-one]",21 nM
3,O=C1c2cc(Nc3ccnnc3)ccc2CCN1CC(O)CN1CCc2ccccc2C1 (stereo not drawn) [Compound 28],11.4 nM
4,"O=C1c2cc(Nc3ccnnc3)ccc2CCN1C[C@@H](O)CN1CCc2ccccc2C1 [Compound 28b, (S)-2-(3-(3,4-dihydroisoquinolin-2(1H)-yl)-2-hydroxypropyl)-7-(pyridazin-4-ylamino)-3,4-dihydroisoquinolin-1(2H)-one]",296 nM
5,Cn1cc(Nc2ccc3c(c2)C(=O)N(CC(O)CN2CCc4ccccc4C2)CCO3)cn1 (stereo not drawn) [Compound 29],39 nM
6,"Cn1cc(Nc2ccc3c(c2)C(=O)N(C[C@@H](O)CN2CCc4ccccc4C2)CCO3)cn1 [Compound 29b, (S)-4-(3-(3,4-dihydroisoquinolin-2(1H)-yl)-2-hydroxypropyl)-7-((1-methyl-1H-pyrazol-4-yl)amino)-3,4-dihydrobenzo[f][1,4]oxazepin-5(2H)-one]",126 nM
7,"O=C1c2cc(Nc3ccnnc3)ccc2OCCN1C[C@@H](O)CN1CCc2ccccc2C1 [Compound 30b, (S)-4-(3-(3,4-dihydroisoquinolin-2(1H)-yl)-2-hydroxypropyl)-7-(pyridazin-4-ylamino)-3,4-dihydrobenzo[f][1,4]oxazepin-5(2H)-one]",36 nM
8,"O=c1c2cc(Nc3ccnnc3)ccc2ncn1CC(O)CN1CCc2ccccc2C1 (stereo not drawn) [Compound 31, 3-(3-(3,4-dihydroisoquinolin-2(1H)-yl)-2-hydroxypropyl)-6-(pyridazin-4-ylamino)quinazolin-4(3H)-one]",179 nM
9,"O=c1c2cc(Nc3ccnnc3)ccc2ccn1CC(O)CN1CCc2ccccc2C1 (stereo not drawn) [Compound 32, 2-(3-(3,4-dihydroisoquinolin-2(1H)-yl)-2-hydroxypropyl)-7-(pyridazin-4-ylamino)isoquinolin-1(2H)-one]",37.2 nM
10,"O=c1c2cc(Nc3ccnnc3)ccc2cnn1CC(O)CN1CCc2ccccc2C1 (stereo not drawn) [Compound 33, 2-(3-(3,4-dihydroisoquinolin-2(1H)-yl)-2-hydroxypropyl)-7-(pyridazin-4-ylamino)phthalazin-1(2H)-one]",22.4 nM
11,"CC1(C)CN(CC(O)CN2CCc3ccccc3C2)C(=O)c2cc(Nc3ccnnc3)ccc21 (stereo not drawn) [Compound 34, 2-(3-(3,4-dihydroisoquinolin-2(1H)-yl)-2-hydroxypropyl)-4,4-dimethyl-7-(pyridazin-4-ylamino)-3,4-dihydroisoquinolin-1(2H)-one]",15.7 nM
12,"O=C1c2cc(Nc3ccnnc3)ccc2C2(CC2)CN1CC(O)CN1CCc2ccccc2C1 (stereo not drawn) [Compound 35, 2′-(3-(3,4-dihydroisoquinolin-2(1H)-yl)-2-hydroxypropyl)-7′-(pyridazin-4-ylamino)-2′,3′-dihydro-1′H-spiro[cyclopropane-1,4′-isoquinolin]-1′-one]",6.1 nM
13,"O=C1c2cc(Nc3cncnc3)ccc2OCCN1C[C@H](O)CN1CCc2ccccc2C1 [Compound 36, (R)-4-(3-(3,4-dihydroisoquinolin-2(1H)-yl)-2-hydroxypropyl)-7-(pyrimidin-5-ylamino)-3,4-dihydrobenzo[f][1,4]oxazepin-5(2H)-one]",10.3 nM
14,"O=C1c2cc(Nc3ccncn3)ccc2OCCN1C[C@H](O)CN1CCc2ccccc2C1 [Compound 37, (R)-4-(3-(3,4-dihydroisoquinolin-2(1H)-yl)-2-hydroxypropyl)-7-(pyrimidin-4-ylamino)-3,4-dihydrobenzo[f][1,4]oxazepin-5(2H)-one]",9.9 nM
15,"O=C1c2cc(Nc3cnccn3)ccc2OCCN1C[C@H](O)CN1CCc2ccccc2C1 [Compound 38, (R)-4-(3-(3,4-dihydroisoquinolin-2(1H)-yl)-2-hydroxypropyl)-7-(pyrazin-2-ylamino)-3,4-dihydrobenzo[f][1,4]oxazepin-5(2H)-one]",13.6 nM
16,"O=C1c2cc(Nc3cccnn3)ccc2OCCN1C[C@H](O)CN1CCc2ccccc2C1 [Compound 39, (R)-4-(3-(3,4-dihydroisoquinolin-2(1H)-yl)-2-hydroxypropyl)-7-(pyridazin-3-ylamino)-3,4-dihydrobenzo[f][1,4]oxazepin-5(2H)-one]",22.5 nM
17,"Cn1ccc(Nc2ccc3c(c2)C(=O)N(C[C@H](O)CN2CCc4ccccc4C2)CCO3)cc1=O [Compound 40, (R)-4-(3-(3,4-dihydroisoquinolin-2(1H)-yl)-2-hydroxypropyl)-7-((1-methyl-2-oxo-1,2-dihydropyridin-4-yl)amino)-3,4-dihydrobenzo[f][1,4]oxazepin-5(2H)-one]",12.2 nM
18,"Cn1nccc1Nc1ccc2c(c1)C(=O)N(C[C@H](O)CN1CCc3ccccc3C1)CCO2 [Compound 41, (R)-4-(3-(3,4-dihydroisoquinolin-2(1H)-yl)-2-hydroxypropyl)-7-((1-methyl-1H-pyrazol-5-yl)amino)-3,4-dihydrobenzo[f][1,4]oxazepin-5(2H)-one]",9.9 nM
19,"Cc1nnc(Nc2ccc3c(c2)C(=O)N(C[C@H](O)CN2CCc4ccccc4C2)CCO3)o1 [Compound 42, (R)-4-(3-(3,4-dihydroisoquinolin-2(1H)-yl)-2-hydroxypropyl)-7-((5-methyl-1,3,4-oxadiazol-2-yl)amino)-3,4-dihydrobenzo[f][1,4]oxazepin-5(2H)-one]",20.2 nM
20,"CN1CC(Nc2ccc3c(c2)C(=O)N(C[C@H](O)CN2CCc4ccccc4C2)CCO3)CC1=O (stereo partly drawn) [Compound 43, 4-((R)-3-(3,4-dihydroisoquinolin-2(1H)-yl)-2-hydroxypropyl)-7-((1-methyl-5-oxopyrrolidin-3-yl)amino)-3,4-dihydrobenzo[f][1,4]oxazepin-5(2H)-one]",51.7 nM
21,"CN1C(=O)CN(CC(O)CN2CCc3ccccc3C2)C(=O)c2cc(Nc3ccnnc3)ccc21 (stereo not drawn) [Compound 44, 4-(3-(3,4-dihydroisoquinolin-2(1H)-yl)-2-hydroxypropyl)-1-methyl-7-(pyridazin-4-ylamino)-3,4-dihydro-1H-benzo[e][1,4]diazepine-2,5-dione]",6.9 nM
22,"CN1CCN(CC(O)CN2CCc3ccccc3C2)C(=O)c2cc(Nc3ccnnc3)ccc21 (stereo not drawn) [Compound 45, 4-(3-(3,4-dihydroisoquinolin-2(1H)-yl)-2-hydroxypropyl)-1-methyl-7-(pyridazin-4-ylamino)-1,2,3,4-tetrahydro-5H-benzo[e][1,4]diazepin-5-one]",9.6 nM
23,"CC(=O)N1CCC(Nc2ccc3c(c2F)C(=O)N(CC(O)CN2CCc4ccccc4C2)CCO3)CC1 (stereo not drawn) [Compound 46, 7-((1-acetylpiperidin-4-yl)amino)-4-(3-(3,4-dihydroisoquinolin-2(1H)-yl)-2-hydroxypropyl)-6-fluoro-3,4-dihydrobenzo[f][1,4]oxazepin-5(2H)-one]",138 nM
24,"O=C1c2cc(Nc3ccnnc3)cnc2OCCN1CC(O)CN1CCc2ccccc2C1 (stereo not drawn) [Compound 47, 4-(3-(3,4-dihydroisoquinolin-2(1H)-yl)-2-hydroxypropyl)-7-(pyridazin-4-ylamino)-3,4-dihydropyrido[3,2-f][1,4]oxazepin-5(2H)-one]",56.3 nM
